Results taken from US8952024B2, “Herbicidal pyrimidone derivatives” (E I du Pont de Nemours and Company, priority 2009, dated 2015).

Key:
Format in all cases: in vivo
[1] = tested on: bermudagrass (Cynodon dactylon); assay: Test B pre-/postemergence plant response
In short: (§1)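 Steps: sow seed in loam–sand soil and spray preemergence, or grow plants in peat-based medium to 1–4 leaves (2–18 cm) and spray postemergence; formulation is non-phytotoxic solvent plus surfactant; hold in greenhouse 13–15 days; score visually vs controls, 0 = no effect, 100 = complete control.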

[2] = tested on: cocklebur (Xanthium strumarium); assay: Test B pre-/postemergence plant response
In short: as §1

[3] = tested on: corn (Zea mays); assay: Test B pre-/postemergence plant response
In short: as §1

[4] = tested on: giant foxtail (Setaria faberii); assay: Test B pre-/postemergence plant response
In short: as §1

[5] = tested on: green foxtail (Setaria viridis); assay: Test B pre-/postemergence plant response
In short: as §1

[6] = tested on: johnsongrass (Sorghum halepense); assay: Test B pre-/postemergence plant response
In short: as §1

[7] = tested on: kochia (Kochia scoparia); assay: Test B pre-/postemergence plant response
In short: as §1

[8] = tested on: lambsquarters (Chenopodium album); assay: Test B pre-/postemergence plant response
In short: as §1

[9] = tested on: pigweed (Amaranthus retroflexus); assay: Test B pre-/postemergence plant response
In short: as §1

[10] = tested on: ragweed (common ragweed, Ambrosia elatior); assay: Test B pre-/postemergence plant response
In short: as §1

[11] = tested on: soybean (Glycine max); assay: Test B pre-/postemergence plant response
In short: as §1

[12] = tested on: wild oat (Avena fatua); assay: Test B pre-/postemergence plant response
In short: as §1

[13] = tested on: barnyardgrass (Echinochloa crus-galli); assay: Test B flooded paddy test; details: for Plant response rating, Barnyardgrass: Flood (flooded paddy test), 13 to 15 days
In short: (§2)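 Seedlings reaching 2 leaves are flooded 3 cm deep; test material is delivered to that water, which stays at the same depth. Plants remain in a greenhouse 13–15 days and are then scored by eye versus controls from 0 to 100.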

[14] = tested on: ducksalad (Heteranthera limosa); assay: Test B flooded paddy test; details: for Plant response rating, Ducksalad: Flood (flooded paddy test), 13 to 15 days
In short: as §2

[15] = tested on: rice (Oryza sativa); assay: Test B flooded paddy test; details: for Plant response rating, Rice: Flood (flooded paddy test), 13 to 15 days
In short: as §2

[16] = tested on: umbrella sedge (Cyperus difformis); assay: Test B flooded paddy test; details: for Plant response rating, Sedge, Umbrella: Flood (flooded paddy test), 13 to 15 days
In short: as §2

[17] = 31 g ai/ha, postemergence, scale 0 to 100, 0 is no effect, 100 is complete control
[18] = 250 g ai/ha, Preemergence, 0 to 100 scale
[19] = Postemergence, 62 g ai/ha, scale 0 (no effect) to 100 (complete control), 13 to 15 days
[20] = Postemergence, 125 g ai/ha, visual rating after 13 to 15 days, scale 0 (no effect) to 100 (complete control)
[21] = Postemergence, 250 g ai/ha, scale 0 to 100 (0 no effect, 100 complete control)
[22] = Preemergence, 31 g ai/ha, scale 0 to 100 (0 no effect, 100 complete control)
[23] = Preemergence, 62 g ai/ha, scale 0 to 100, 0 no effect, 100 complete control
[24] = Preemergence, 125 g ai/ha, 0 to 100 scale
[25] = 250 g ai/ha, flooded paddy test, visual rating on 0 to 100 scale (0 no effect, 100 complete control) after 13 to 15 days
[26] = 31 g ai/ha, scale of 0 to 100 where 0 is no effect and 100 is complete control
[27] = 62 g ai/ha, scale of 0 to 100 where 0 is no effect and 100 is complete control
[28] = 125 g ai/ha, scale 0 to 100, 0 is no effect, 100 is complete control

## CCCn1c(-c2ccccc2)ncc(C(=O)C2=C(O)CCCC2=O)c1=O [Compound 50]
[1]; [17]
  Plant response rating, Bermudagrass: 90
[1]; [18]
  Plant response rating, Bermudagrass: 100
[1]; [19]
  Plant response rating, Bermudagrass: 100
[1]; [20]
  Plant response rating, Bermudagrass: 100
[1]; [21]
  Plant response rating, Bermudagrass: 100
[1]; [22]
  Plant response rating, Bermudagrass: 100
[1]; [23]
  Plant response rating, Bermudagrass: 100
[1]; [24]
  Bermudagrass plant response rating: 100
[2]; [17]
  Plant response rating, Cocklebur: 85
[2]; [19]
  Plant response rating, Cocklebur: 85
[2]; [20]
  Plant response rating, Cocklebur: 90
[2]; [21]
  Plant response rating, Cocklebur: 90
[2]; [23]
  Plant response rating, Cocklebur: 75
[2]; [24]
  Cocklebur plant response rating: 75
[3]; [17]
  Plant response rating, Corn: 5
[3]; [18]
  Plant response rating, Corn: 0
[3]; [19]
  Plant response rating, Corn: 10
[3]; [20]
  Plant response rating, Corn: 25
[3]; [21]
  Plant response rating, Corn: 25
[3]; [22]
  Plant response rating, Corn: 0
[3]; [23]
  Plant response rating, Corn: 0
[3]; [24]
  Corn plant response rating: 0
[4]; [17]
  Plant response rating, Foxtail, Giant: 75
[4]; [18]
  Plant response rating, Foxtail, Giant: 90
[4]; [19]
  Plant response rating, Foxtail, Giant: 85
[4]; [20]
  Plant response rating, Foxtail, Giant: 95
[4]; [21]
  Plant response rating, Foxtail, Giant: 95
[4]; [22]
  Plant response rating, Foxtail, Giant: 45
[4]; [23]
  Plant response rating, Foxtail, Giant: 75
[4]; [24]
  Foxtail, Giant plant response rating: 90
[5]; [17]
  Plant response rating, Foxtail, Green: 80
[5]; [18]
  Plant response rating, Foxtail, Green: 100
[5]; [19]
  Plant response rating, Foxtail, Green: 80
[5]; [20]
  Plant response rating, Foxtail, Green: 95
[5]; [21]
  Plant response rating, Foxtail, Green: 95
[5]; [22]
  Plant response rating, Foxtail, Green: 50
[5]; [23]
  Plant response rating, Foxtail, Green: 50
[5]; [24]
  Foxtail, Green plant response rating: 95
[6]; [17]
  Plant response rating, Johnsongrass: 0
[6]; [18]
  Plant response rating, Johnsongrass: 95
[6]; [19]
  Plant response rating, Johnsongrass: 10
[6]; [20]
  Plant response rating, Johnsongrass: 65
[6]; [21]
  Plant response rating, Johnsongrass: 70
[6]; [22]
  Plant response rating, Johnsongrass: 0
[6]; [23]
  Plant response rating, Johnsongrass: 20
[6]; [24]
  Johnsongrass plant response rating: 90
[7]; [17]
  Plant response rating, Kochia: 95
[7]; [19]
  Plant response rating, Kochia: 100
[7]; [20]
  Plant response rating, Kochia: 100
[7]; [21]
  Plant response rating, Kochia: 100
[8]; [17]
  Plant response rating, Lambsquarters: 98
[8]; [18]
  Plant response rating, Lambsquarters: 100
[8]; [19]
  Plant response rating, Lambsquarters: 98
[8]; [20]
  Plant response rating, Lambsquarters: 100
[8]; [21]
  Plant response rating, Lambsquarters: 100
[8]; [22]
  Plant response rating, Lambsquarters: 100
[8]; [23]
  Plant response rating, Lambsquarters: 100
[8]; [24]
  Lambsquarters plant response rating: 100
[9]; [17]
  Plant response rating, Pigweed: 80
[9]; [18]
  Plant response rating, Pigweed: 100
[9]; [19]
  Plant response rating, Pigweed: 98
[9]; [20]
  Plant response rating, Pigweed: 100
[9]; [21]
  Plant response rating, Pigweed: 100
[9]; [22]
  Plant response rating, Pigweed: 90
[9]; [24]
  Pigweed plant response rating: 100
[10]; [17]
  Plant response rating, Ragweed: 80
[10]; [18]
  Plant response rating, Ragweed: 100
[10]; [19]
  Plant response rating, Ragweed: 90
[10]; [20]
  Plant response rating, Ragweed: 98
[10]; [21]
  Plant response rating, Ragweed: 98
[10]; [22]
  Plant response rating, Ragweed: 75
[10]; [24]
  Ragweed plant response rating: 95
[11]; [17]
  Plant response rating, Soybean: 85
[11]; [18]
  Plant response rating, Soybean: 0
[11]; [19]
  Plant response rating, Soybean: 85
[11]; [20]
  Plant response rating, Soybean: 95
[11]; [21]
  Plant response rating, Soybean: 95
[11]; [22]
  Plant response rating, Soybean: 0
[12]; [17]
  Plant response rating, Oat, Wild: 5
[12]; [18]
  Plant response rating, Oat, Wild: 0
[12]; [19]
  Plant response rating, Oat, Wild: 5
[12]; [20]
  Plant response rating, Oat, Wild: 10
[12]; [21]
  Plant response rating, Oat, Wild: 30
[12]; [22]
  Plant response rating, Oat, Wild: 0
[12]; [24]
  Oat, Wild plant response rating: 0
[13]; [25]
  Plant response rating, Flood, Barnyardgrass: 60
[13]; [26]
  Plant response rating, Barnyardgrass: 0
[13]; [27]
  Plant response rating, Barnyardgrass: 0
[13]; [28]
  Plant response rating, Barnyardgrass: 35
[14]; [25]
  Plant response rating, Flood, Ducksalad: 85
[14]; [26]
  Plant response rating, Ducksalad: 70
[14]; [27]
  Plant response rating, Ducksalad: 75
[14]; [28]
  Plant response rating, Ducksalad: 85
[15]; [25]
  Plant response rating, Flood, Rice: 20
[15]; [26]
  Plant response rating, Rice: 0
[15]; [27]
  Plant response rating, Rice: 10
[15]; [28]
  Plant response rating, Rice: 15
[16]; [25]
  Plant response rating, Flood, Sedge, Umbrella: 95
[16]; [26]
  Plant response rating, Sedge, Umbrella: 75
[16]; [27]
  Plant response rating, Sedge, Umbrella: 75
[16]; [28]
  Plant response rating, Sedge, Umbrella: 85
